Data taken from ChEMBL document CHEMBL5126594, “Entry inhibition of hepatitis B virus using cyclosporin O derivatives with peptoid side chain incorporation” (Bioorg Med Chem, 2022).
pIC50: −log10 of the molar value. Square brackets hold non-standard residues; d marks the D form. Peptide text beside a SMILES is read from it. NMeL = CN[C@@H](CC(C)C)C(=O)O; NMeV = CN[C@H](C(=O)O)C(C)C; Nva = CCC[C@H](N)C(=O)O; Sar = CNCC(=O)O

How the values were obtained:
Hepatitis B virus [1] = assay: Antiviral activity against Hepatitis B virus infected in human HepG2 cells expressing NTCP assessed as inhibition of viral entry by measuring intracellular HBV DNA at 1 uM preincubated with compound for 2 hrs followed by viral infection and measured after 3 hrs by qPCR analysis relative to control; format: functional; settings: time 5 hrs
Hepatitis B virus [2] = assay: Antiviral activity against Hepatitis B virus infected in human HepG2 cells expressing NTCP assessed as inhibition of viral entry by measuring intracellular HBV DNA preincubated with compound for 2 hrs followed by viral infection and measured after 3 hrs by qPCR analysis; format: functional, organism-based
[3] = Cytotoxicity against human HepG2 cells assessed as reduction in cell viability incubated for 24 hrs by MTS assay; format: toxicity, cell-based; settings: read-out: LC50

| Structure (SMILES) | inhibition at 1 µM (Hepatitis B virus [1]) | pIC50 (Hepatitis B virus [2]) | CC50 at 24 h [3] |
| --- | --- | --- | --- |
| CCC[C@@H]1NC(=O)[C@H](CC(C)C)N(C)C(=O)[C@H](CC(C)C)N(C)C(=O)CN(CCOC)C(=O)[C@H](CC(C)C)N(C)C(=O)[C@@H](C)NC(=O)[C@@H](CCC(N)=O)NC(=O)[C@H](CC(C)C)N(C)C(=O)[C@H](C(C)C)NC(=O)[C@H](CC(C)C)N(C)C(=O)CN(C)C1=O | 52% | – | – |
| CCC[C@@H]1NC(=O)[C@H](CC(C)C)N(C)C(=O)[C@H](CC(C)C)N(C)C(=O)[C@H](CC(C)C)N(C)C(=O)[C@H](CC(C)C)N(C)C(=O)[C@@H](C)NC(=O)[C@H](CCC(N)=O)NC(=O)[C@H](CC(C)C)N(C)C(=O)[C@H](C(C)C)NC(=O)CN(C)C(=O)CN(C)C1=O | 86% | 6.36 | – |
| CCC[C@@H]1NC(=O)[C@H](CC(C)C)N(C)C(=O)[C@H](CC(C)C)N(C)C(=O)CN(CCC(=O)O)C(=O)[C@H](CC(C)C)N(C)C(=O)[C@@H](C)NC(=O)[C@@H](CCC(N)=O)NC(=O)[C@H](CC(C)C)N(C)C(=O)[C@H](C(C)C)NC(=O)[C@H](CC(C)C)N(C)C(=O)CN(C)C1=O | 63% | – | – |
| CCC[C@@H]1NC(=O)[C@H](CC(C)C)N(C)C(=O)[C@H](CC(C)C)N(C)C(=O)CN(CC(C)C)C(=O)[C@H](CC(C)C)N(C)C(=O)[C@@H](C)NC(=O)[C@@H](CCC(N)=O)NC(=O)[C@H](CC(C)C)N(C)C(=O)[C@H](C(C)C)NC(=O)[C@H](CC(C)C)N(C)C(=O)CN(C)C1=O | 65% | – | – |
| CCC[C@@H]1NC(=O)[C@H](CC(C)C)N(C)C(=O)[C@H](CC(C)C)N(C)C(=O)[C@H](CC(C)C)N(C)C(=O)CN(CCC(=O)O)C(=O)[C@@H](C)NC(=O)[C@@H](CCC(N)=O)NC(=O)[C@H](CC(C)C)N(C)C(=O)[C@H](C(C)C)NC(=O)[C@H](CC(C)C)N(C)C(=O)CN(C)C1=O | 84% | 6.35 | > 200000 nM |
| CCC[C@@H]1NC(=O)[C@H](CC(C)C)N(C)C(=O)[C@H](CC(C)C)N(C)C(=O)[C@H](CC(C)C)N(C)C(=O)[C@H](CC(C)C)N(C)C(=O)[C@@H](C)NC(=O)[C@@H](CCC(N)=O)NC(=O)[C@H](CC(C)C)N(C)C(=O)[C@H](C(C)C)NC(=O)CN(CC(C)C)C(=O)CN(C)C1=O | 85% | 6.38 | – |
| CCC[C@@H]1NC(=O)[C@H](CC(C)C)N(C)C(=O)[C@H](CC(C)C)N(C)C(=O)CN(C)C(=O)[C@H](CC(C)C)N(C)C(=O)[C@@H](C)NC(=O)[C@@H](CCC(N)=O)NC(=O)[C@H](CC(C)C)N(C)C(=O)[C@H](C(C)C)NC(=O)[C@H](CC(C)C)N(C)C(=O)CN(C)C1=O | 37% | – | – |
| CCC[C@@H]1NC(=O)[C@H](CC(C)C)N(C)C(=O)[C@H](CC(C)C)N(C)C(=O)CN(Cc2ccccc2)C(=O)[C@H](CC(C)C)N(C)C(=O)[C@@H](C)NC(=O)[C@@H](CCC(N)=O)NC(=O)[C@H](CC(C)C)N(C)C(=O)[C@H](C(C)C)NC(=O)[C@H](CC(C)C)N(C)C(=O)CN(C)C1=O | 62% | – | – |
| CCC[C@@H]1NC(=O)[C@H](CC(C)C)N(C)C(=O)[C@H](CC(C)C)N(C)C(=O)CN(CCCCN)C(=O)[C@H](CC(C)C)N(C)C(=O)[C@@H](C)NC(=O)[C@@H](CCC(N)=O)NC(=O)[C@H](CC(C)C)N(C)C(=O)[C@H](C(C)C)NC(=O)[C@H](CC(C)C)N(C)C(=O)CN(C)C1=O | 57% | – | – |
| CCC[C@@H]1NC(=O)[C@H](CC(C)C)N(C)C(=O)[C@H](C(C)C)N(C)C(=O)[C@H](CC(C)C)N(C)C(=O)[C@H](CC(C)C)N(C)C(=O)[C@@H](C)NC(=O)[C@H](C)NC(=O)[C@H](CC(C)C)N(C)C(=O)[C@H](C(C)C)NC(=O)[C@H](CC(C)C)N(C)C(=O)CN(C)C1=O (cyclo(A[dA][NMeL][NMeL][NMeV][NMeL][Nva][Sar][NMeL]V[NMeL])) | 75% | 6.29 | > 200000 nM |
| C/C=C/C[C@@H](C)[C@@H](O)[C@H]1C(=O)N[C@@H](CC)C(=O)N(C)CC(=O)N(C)[C@@H](CC(C)C)C(=O)N[C@@H](C(C)C)C(=O)N(C)[C@@H](CC(C)C)C(=O)N[C@@H](C)C(=O)N[C@H](C)C(=O)N(C)[C@@H](CC(C)C)C(=O)N(C)[C@@H](CC(C)C)C(=O)N(C)[C@@H](C(C)C)C(=O)N1C [CYCLOSPORINE] | 83% | 6.40 | – |
